Results from ChEMBL document CHEMBL4321839, “Structure-activity relationships (SAR) of triazine derivatives: Promising antimicrobial agents” (Eur J Med Chem, 2020).
Converted amounts (≈) assume the structure as drawn. One block for each molecule: values may come before it.

How the values were obtained:
[1] = test system: Cryptococcus neoformans; experiment: Antifungal activity against Cryptococcus neoformans NCIM-3542 at 72 hrs by CLSI based alamar blue assay; type: functional; conditions: NCIM-3542, 72 h
[2] = test system: Candida albicans; experiment: Antifungal activity against Candida albicans NCIM-3102 at 18 to 24 hrs by CLSI based alamar blue assay; type: functional
[3] = test system: Nakaseomyces glabratus; experiment: Antifungal activity against Candida glabrata NCIM-3266 at 18 to 24 hrs by CLSI based alamar blue assay; type: functional
[4] = test system: Aspergillus niger; experiment: Antifungal activity against Aspergillus niger NCIM-620 at 72 hrs by CLSI based alamar blue assay; type: functional; conditions: NCIM-620, 72 h
[5] = test system: Escherichia coli; experiment: Antimicrobial activity multi drug-resistant against Escherichia coli; type: functional
[6] = test system: Staphylococcus aureus; experiment: Antimicrobial activity methicillin-resistant against Staphylococcus aureus; type: functional
[7] = test system: Pseudomonas aeruginosa; experiment: Antimicrobial activity against Pseudomonas aeruginosa NCIM-2036 after 24 hrs by CLSI based broth dilution method; type: functional; conditions: NCIM-2036, 24 h
[8] = test system: Bacillus subtilis; experiment: Antimicrobial activity against Bacillus subtilis NCIM-2063 assessed as zone of inhibition at 5 ug after 24 hrs by disk diffusion method; type: functional; conditions: NCIM-2063, 24 h, read-out: IZ
[9] = test system: Bacillus cereus; experiment: Antimicrobial activity against Bacillus cereus NCIM-2156 assessed as zone of inhibition at 5 ug after 24 hrs by disk diffusion method; type: functional; conditions: NCIM-2156, 24 h, read-out: IZ
[10] = test system: Staphylococcus aureus; experiment: Antimicrobial activity against Staphylococcus aureus NCIM-2079 assessed as zone of inhibition at 5 ug after 24 hrs by disk diffusion method; type: functional; conditions: NCIM-2079, 24 h, read-out: IZ
[11] = test system: Pseudomonas aeruginosa; experiment: Antimicrobial activity against Pseudomonas aeruginosa NCIM-2036 assessed as zone of inhibition at 5 ug after 24 hrs by disk diffusion method; type: functional; conditions: NCIM-2036, 24 h, read-out: IZ
[12] = test system: Staphylococcus aureus; experiment: Antimicrobial activity against methicillin-resistant Staphylococcus aureus clinical isolate MRSA1 assessed as reduction in microbial growth by two-fold serial dilution method; type: functional
[13] = Cytotoxicity against African green monkey Vero cells incubated for 72 hrs by MTT assay; type: cell-based; conditions: chlorocebus sabaeus
[14] = test system: Staphylococcus aureus; experiment: Antimicrobial activity against Staphylococcus aureus […] assessed as reduction in microbial growth after 24 to 48 hrs by microdilution susceptibility test; type: functional
[15] = test system: Escherichia coli; experiment: Antimicrobial activity against Escherichia coli ATCC 25922 assessed as reduction in microbial growth after 24 to 48 hrs by microdilution susceptibility test; type: functional
[16] = test system: Klebsiella pneumoniae; experiment: Antimicrobial activity against multi drug-resistant Klebsiella pneumoniae assessed as reduction in microbial growth by two-fold serial dilution method; type: functional
[17] = test system: Pseudomonas aeruginosa; experiment: Antimicrobial activity against Pseudomonas aeruginosa MTCC 1688 assessed as reduction in microbial growth after 24 to 48 hrs by broth dilution method; type: functional
[18] = test system: Escherichia coli; experiment: Antimicrobial activity against Escherichia coli MTCC 443 assessed as reduction in microbial growth after 24 to 48 hrs by broth dilution method; type: functional
[19] = test system: Escherichia coli; experiment: Antimicrobial activity against multi drug-resistant Escherichia coli assessed as reduction in microbial growth after 24 to 48 hrs by microdilution susceptibility test; type: functional
[20] = test system: Staphylococcus aureus; experiment: Antimicrobial activity against methicillin-resistant Staphylococcus aureus assessed as reduction in microbial growth after 24 to 48 hrs by microdilution susceptibility test; type: functional

MIC [1]: 0.63 to 5 µg/mL (≈ 1.48 to 11.8 µM)
MIC [2]: 0.63 to 5 µg/mL (≈ 1.48 to 11.8 µM)
MIC [3]: 0.63 to 5 µg/mL (≈ 1.48 to 11.8 µM)
MIC [4]: 0.63 to 5 µg/mL (≈ 1.48 to 11.8 µM)
SMILES: c1ccc(-c2csc(Nc3nc(N4CCOCC4)nc(N4CCOCC4)n3)n2)cc1

SMILES: Cc1ccc(C2=NN=C3C(F)CC4=C(C(C5CC5)C=C(C(=O)O)C4=O)N3C2)cc1 (stereo unspecified)
MIC [5]: 0.25 µg/mL (≈ 0.635 µM)
MIC [6]: 0.5 µg/mL (≈ 1.27 µM)

MIC [7]: 6.25 µg/mL (≈ 10.4 µM)
SMILES: CC1=NN(c2ccccc2)C(C)C1Nc1nnc(Sc2nc(Nc3ccc(F)cc3)nc(Nc3ccc(F)cc3)n2)s1 (stereo unspecified)

MIC [7]: 6.25 µg/mL (≈ 8.63 µM)
SMILES: CC1=NN(c2ccccc2)C(C)C1Nc1nnc(Sc2nc(Nc3ccc(Br)cc3)nc(Nc3ccc(Br)cc3)n2)s1 (stereo unspecified)

MIC [2]: 5 µg/mL (≈ 12.4 µM)
SMILES: CC(C)Nc1nc(Nc2nc(-c3ccc(Cl)cc3)cs2)nc(NC(C)C)n1

SMILES: S=C(Nc1ccnc2cc(Cl)ccc12)N1CCN(c2nc(Nc3ccc(Cl)cc3)nc(Nc3ccc(Cl)cc3)n2)CC1
zone of inhibition at 5 µg/disc [8]: 16 to 17 mm
zone of inhibition at 5 µg/disc [9]: 9 to 17 mm
zone of inhibition at 5 µg/disc [10]: 16 to 17 mm
zone of inhibition at 5 µg/disc [11]: 9 to 17 mm

SMILES: COc1ccc(C2=NN=C3C(F)CC4=C(C(C5CC5)C=C(C(=O)O)C4=O)N3C2)cc1OC (stereo unspecified)
MIC [5]: 0.5 µg/mL (≈ 1.14 µM)
MIC [6]: 1 µg/mL (≈ 2.28 µM)

SMILES: O=C(N/N=C/c1ccc2c(c1)OCO2)c1ccc(Nc2nc(N3CCCCC3)nc(N3CCCCC3)n2)cc1
MIC [12]: 25 µg/mL
CC50 at 72 h [13]: 250 µg/mL (≈ 473 µM)

MIC [1]: 0.63 to 5 µg/mL (≈ 1.37 to 10.9 µM)
MIC [2]: 0.63 to 5 µg/mL (≈ 1.37 to 10.9 µM)
MIC [3]: 0.63 to 5 µg/mL (≈ 1.37 to 10.9 µM)
MIC [4]: 0.63 to 5 µg/mL (≈ 1.37 to 10.9 µM)
SMILES: Clc1ccc(-c2csc(Nc3nc(N4CCOCC4)nc(N4CCOCC4)n3)n2)cc1

MIC [7]: 6.25 µg/mL (≈ 9.83 µM)
SMILES: CC1=NN(c2ccccc2)C(C)C1Nc1nnc(Sc2nc(Nc3ccc(Cl)cc3)nc(Nc3ccc(Cl)cc3)n2)s1 (stereo unspecified)

MIC [2]: 0.32 µg/mL (≈ 0.504 µM)
MIC [3]: 0.32 µg/mL (≈ 0.504 µM)
SMILES: O=[N+]([O-])c1ccc(-c2csc(Nc3nc(N(c4ccccc4)c4ccccc4)nc(N(c4ccccc4)c4ccccc4)n3)n2)cc1

SMILES: Nc1ccc(C2=NN=C3C(F)CC4=C(C(C5CC5)C=C(C(=O)O)C4=O)N3C2)cc1 (stereo unspecified)
MIC [6]: 0.25 µg/mL (≈ 0.634 µM)

SMILES: COc1ccccc1C1=NN=C2C(F)CC3=C(C(C4CC4)C=C(C(=O)O)C3=O)N2C1 (stereo unspecified)
MIC [5]: 0.5 µg/mL (≈ 1.22 µM)
MIC [6]: 1 µg/mL (≈ 2.44 µM)

MIC [1]: 0.63 to 5 µg/mL (≈ 1.34 to 10.6 µM)
MIC [2]: 0.63 to 5 µg/mL (≈ 1.34 to 10.6 µM)
MIC [3]: 0.63 to 5 µg/mL (≈ 1.34 to 10.6 µM)
MIC [4]: 0.63 to 5 µg/mL (≈ 1.34 to 10.6 µM)
SMILES: O=[N+]([O-])c1ccc(-c2csc(Nc3nc(N4CCOCC4)nc(N4CCOCC4)n3)n2)cc1

MIC [14]: 12.5 to 25 µg/mL
MIC [15]: 12.5 to 25 µg/mL
SMILES: O=C(CNc1nc(NCC(=O)N/N=C/c2ccc(Cl)cc2)nc(N2CCN(c3nc(NCC(=O)N/N=C/c4ccc(Cl)cc4)nc(NCC(=O)N/N=C/c4ccc(Cl)cc4)n3)CC2)n1)N/N=C/c1ccc(Cl)cc1

SMILES: S=C(Nc1ccnc2cc(Cl)ccc12)N1CCN(c2nc(Nc3ccc(Br)cc3)nc(Nc3ccc(Br)cc3)n2)CC1
zone of inhibition at 5 µg/disc [8]: 16 to 17 mm
zone of inhibition at 5 µg/disc [9]: 9 to 17 mm
zone of inhibition at 5 µg/disc [10]: 16 to 17 mm
zone of inhibition at 5 µg/disc [11]: 9 to 17 mm

SMILES: O=C(N/N=C/c1ccccc1)c1ccc(Nc2nc(N3CCCCC3)nc(N3CCCCC3)n2)cc1
CC50 at 72 h [13]: 250 µg/mL (≈ 516 µM)
MIC [16]: 50 µg/mL

SMILES: Nc1nc(N)nc(Nc2ccc(C(=O)N/N=C/c3ccco3)cc2)n1
MIC [12]: 3.12 µg/mL
CC50 at 72 h [13]: 125 µg/mL (≈ 369 µM)
MIC [16]: 12.5 µg/mL

SMILES: O=C(O)C1=CC(C2CC2)C2=C(CC(F)C3=NN=C(c4ccc(Cl)cc4)CN32)C1=O (stereo unspecified)
MIC [5]: 8 µg/mL (≈ 19.3 µM)
MIC [6]: 8 µg/mL (≈ 19.3 µM)

MIC [17]: 50 µg/mL
MIC [18]: 25 µg/mL
SMILES: O=[N+]([O-])c1ccc(Nc2nc(Nc3ccc(S(=O)(=O)Nc4ncccn4)cc3)nc(N3CCCCC3)n2)cc1

SMILES: O=C(O)c1ccc(Nc2nc(Cl)nc(N3CCCCC3)n2)cc1
MIC [14]: 25 µg/mL
MIC [15]: 25 µg/mL
CC50 at 72 h [13]: 125 µg/mL (≈ 374 µM)
MIC [19]: 25 µg/mL
MIC [20]: 100 µg/mL
